Measured values as given in ChEMBL document CHEMBL1201862, “PubChem BioAssay data set” (2004).
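Cultured in 96-well plates, cells were exposed to test compound for 48 hours across five concentrations. Abbreviation: GI50, concentration required for 50% inhibition of growth.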 Active and inactive are the calls of the source. Cut-off read from the data, not from the text of the source: active = GI50 up to about 1.1 µM and inactive = higher.

Legend:
Assay in all cases: DTP human tumour cell line panel, 48 h
[1] = tested on: 786-0
[2] = tested on: ACHN
[3] = tested on: DU-145
[4] = tested on: HCT-15
[5] = tested on: HOP-62
[6] = tested on: HOP-92
[7] = tested on: Hs-578T
[8] = tested on: MDA-MB-231
[9] = tested on: MOLT-4
[10] = tested on: NCI-H23
[11] = tested on: NCI-H522
[12] = tested on: NCI/ADR-RES
[13] = tested on: SN12C
[14] = tested on: T47D
[15] = tested on: TK-10
[16] = tested on: UO-31
[17] = tested on: K562

SMILES | GI50 [1] | GI50 [2] | GI50 [3] | GI50 [4] | GI50 [5] | GI50 [6] | GI50 [7] | GI50 [8] | GI50 [9] | GI50 [10] | GI50 [11] | GI50 [12] | GI50 [13] | GI50 [14] | GI50 [15] | GI50 [16] | GI50 [17]
NC(=O)C1CCCNC1 (configuration not stated) | > 100 µM (inactive) | > 100 µM (inactive) | > 100 µM (inactive) | > 100 µM | > 100 µM (inactive) | > 100 µM (inactive) | > 100 µM (inactive) | > 100 µM (inactive) | 24.3 µM (inactive) | > 100 µM (inactive) | > 100 µM (inactive) | > 100 µM (inactive) | > 100 µM (inactive) | > 100 µM (inactive) | > 100 µM (inactive) | > 100 µM (inactive) | –
Cc1cc(C)nc(NC(=O)COc2ccc(Cl)cc2)c1 | > 100 µM (inactive) | > 100 µM (inactive) | > 100 µM (inactive) | > 100 µM | > 100 µM (inactive) | > 100 µM (inactive) | > 100 µM (inactive) | > 100 µM (inactive) | 56.6 µM (inactive) | > 100 µM (inactive) | 84.5 µM (inactive) | 66.4 µM (inactive) | > 100 µM (inactive) | 48.9 µM (inactive) | > 100 µM (inactive) | – | > 100 µM (inactive)
COc1ccc(OC)c(/N=C/c2cc(OC)c(OC)c(OC)c2)c1 | > 95.7 µM (inactive) | > 94.4 µM (inactive) | > 100 µM (inactive) | > 92.7 µM | > 100 µM (inactive) | – | > 100 µM (inactive) | > 100 µM (inactive) | 68.9 µM (inactive) | > 100 µM (inactive) | 22.9 µM (inactive) | > 100 µM (inactive) | > 100 µM (inactive) | > 100 µM (inactive) | > 100 µM (inactive) | > 100 µM (inactive) | > 68.1 µM (inactive)
COc1cc(C(c2cccc3ccccc23)N2C(=O)CCC2C(=O)O)cc(OC)c1OC (configuration not stated) | > 100 µM (inactive) | > 100 µM (inactive) | > 100 µM (inactive) | > 100 µM | > 100 µM (inactive) | > 100 µM (inactive) | > 100 µM (inactive) | > 100 µM (inactive) | > 100 µM (inactive) | > 100 µM (inactive) | > 100 µM (inactive) | > 100 µM (inactive) | > 100 µM (inactive) | > 100 µM (inactive) | – | > 100 µM (inactive) | > 100 µM (inactive)
Cc1cc2c3c([nH]c2c2ccnc(C)c12)CCCC3 | 1.68 µM (inactive) | 4.1 µM (inactive) | 3.23 µM (inactive) | 1.86 µM | 1.79 µM (inactive) | 2.6 µM (inactive) | 1.92 µM (inactive) | 1.69 µM (inactive) | 2.01 µM (inactive) | 2.86 µM (inactive) | – | 5.13 µM (inactive) | 1.77 µM (inactive) | 2.15 µM (inactive) | 2.33 µM (inactive) | 2.05 µM (inactive) | 2.07 µM (inactive)
O=C(C/N=C(\CN(c1ccccc1)c1ccccc1)Oc1c(Cl)cc(Cl)cc1Cl)N1c2ccccc2Sc2ccccc21 | 55.3 µM (inactive) | 39.9 µM (inactive) | > 100 µM (inactive) | 32.9 µM | > 100 µM (inactive) | 21.9 µM (inactive) | 50.9 µM (inactive) | > 100 µM (inactive) | 30.6 µM (inactive) | 40.2 µM (inactive) | 28.3 µM (inactive) | 57.9 µM (inactive) | 47.8 µM (inactive) | 31.9 µM (inactive) | 43.9 µM (inactive) | – | > 10 µM (inactive)
CNC1(C(=O)O)CC1 | > 100 µM (inactive) | > 100 µM (inactive) | > 100 µM (inactive) | > 100 µM | > 100 µM (inactive) | > 100 µM (inactive) | > 100 µM (inactive) | > 100 µM (inactive) | > 100 µM (inactive) | > 100 µM (inactive) | > 100 µM (inactive) | > 100 µM (inactive) | > 100 µM (inactive) | 87.5 µM (inactive) | > 100 µM (inactive) | – | > 100 µM (inactive)
CC1OC2OC3C(OCC(O)C3O)OC(=O)[C@]34CCC(C)(C)CC3C3=CCC5[C@@]6(C)C[C@H](O)[C@H](OC7OC(CO)C(O)C(O)C7OC7OC(COC(=O)CC(C)(O)CC(=O)OC1C(O)C2O)C(O)C(O)C7O)[C@@](C)(CO)C6CC[C@@]5(C)[C@]3(C)CC4 (some centres not stated) | 1.21 µM (inactive) | 1.32 µM (inactive) | 1.75 µM (inactive) | 1.53 µM | 1.44 µM (inactive) | 1.54 µM (inactive) | 1.79 µM (inactive) | 1.56 µM (inactive) | 1.32 µM (inactive) | 1.64 µM (inactive) | 1.64 µM (inactive) | 3.01 µM (inactive) | 1.96 µM (inactive) | 2.39 µM (inactive) | 1.61 µM (inactive) | 1.22 µM (inactive) | –
Cc1nc(-c2ccccc2)c(C)n2c1nc1ccccc12 | 29 µM (inactive) | – | 29.9 µM (inactive) | 24.2 µM | 32.4 µM (inactive) | 19 µM (inactive) | 40 µM (inactive) | 31.9 µM (inactive) | 27.5 µM (inactive) | 15.4 µM (inactive) | – | 23.4 µM (inactive) | 42.9 µM (inactive) | 12.6 µM (inactive) | 29.4 µM (inactive) | 14.7 µM (inactive) | 35.3 µM (inactive)
C[n+]1c2ccccc2c(N=[N+]=[N-])c2ccccc21 | 4.53 µM (inactive) | 4.13 µM (inactive) | > 10 µM (inactive) | 5.66 µM | > 10 µM (inactive) | – | > 10 µM (inactive) | 8.63 µM (inactive) | 4.69 µM (inactive) | 4.22 µM (inactive) | 8.87 µM (inactive) | > 10 µM (inactive) | 7.03 µM (inactive) | > 10 µM (inactive) | 6.97 µM (inactive) | – | 5.82 µM (inactive)
C=C(CO)[C@H]1Oc2ccc(C(C)=O)cc2[C@@H]1O | > 100 µM (inactive) | > 100 µM (inactive) | > 100 µM (inactive) | 80.9 µM | > 100 µM (inactive) | – | 77.8 µM (inactive) | > 100 µM (inactive) | > 100 µM (inactive) | > 100 µM (inactive) | 88.7 µM (inactive) | – | > 100 µM (inactive) | > 100 µM (inactive) | > 100 µM (inactive) | > 100 µM (inactive) | 67.9 µM (inactive)
O=C1CSC2(CC(/C=C/c3ccccc3O)=NN2c2cccc(S(=O)(=O)O)c2)N1c1nc2ccccc2s1 (configuration not stated) | 31.6 µM (inactive) | 32.1 µM (inactive) | 30.5 µM (inactive) | 20 µM | – | 25.6 µM (inactive) | 47.3 µM (inactive) | 30.1 µM (inactive) | 20.3 µM (inactive) | 22.1 µM (inactive) | 15.7 µM (inactive) | 26.7 µM (inactive) | 24.8 µM (inactive) | 19.6 µM (inactive) | 20 µM (inactive) | 28.7 µM (inactive) | 24.7 µM (inactive)
COC(=O)C1C(O)C(C)C(=O)C(C)/C=C\C=C(C)C(=O)Nc2c(C)c(OC(C)=O)c3c(c2O)C(=O)C(C)=C2OCOC(=C23)C(C)=CC(C)(O)C(O)C(C)C1O (configuration not stated) | 54.6 µM (inactive) | 26.2 µM (inactive) | 15 µM (inactive) | 21.6 µM | > 100 µM (inactive) | 50.5 µM (inactive) | 37.4 µM (inactive) | > 100 µM (inactive) | 29.4 µM (inactive) | 17.5 µM (inactive) | 43.5 µM (inactive) | 46.9 µM (inactive) | 31.4 µM (inactive) | 33.3 µM (inactive) | – | 23.5 µM (inactive) | 19.1 µM (inactive)
O=C(/C=C/c1ccccc1)OCC1=C[C@@H](O)[C@@H]2C=CO[C@@H](OC3OC(CO)C(O)C(O)C3O)[C@H]12 (some centres not stated) | > 100 µM (inactive) | > 100 µM (inactive) | > 100 µM (inactive) | > 100 µM | > 100 µM (inactive) | > 100 µM (inactive) | > 100 µM (inactive) | > 100 µM (inactive) | > 100 µM (inactive) | > 100 µM (inactive) | > 100 µM (inactive) | > 100 µM (inactive) | > 100 µM (inactive) | > 100 µM (inactive) | > 100 µM (inactive) | > 100 µM (inactive) | –
C/C(=N\Nc1nc2ccccc2[nH]1)c1ncccn1 | 0.0238 µM (active) | < 0.0232 µM (active) | – | 0.0302 µM | 1.64 µM (inactive) | 0.0552 µM (active) | 12.1 µM (inactive) | 0.059 µM (active) | < 0.01 µM (active) | 0.0621 µM (active) | < 0.0164 µM (active) | 0.0608 µM (active) | 0.0715 µM (active) | 0.0215 µM (active) | 1.31 µM (inactive) | < 0.0202 µM (active) | 0.044 µM (active)
CC(=O)OC1CC[C@@]2(C)C(C1)CC(OC(C)=O)[C@@H]1C2CC(OC(C)=O)[C@]2(C)C(C(C)CC=C(c3ccc(Cl)cc3)c3ccc(Cl)cc3)CCC12 (some centres not stated) | > 100 µM (inactive) | 23.3 µM (inactive) | – | 38.1 µM | 94.4 µM (inactive) | – | 25.9 µM (inactive) | 48 µM (inactive) | 20 µM (inactive) | – | 21.8 µM (inactive) | > 100 µM (inactive) | > 100 µM (inactive) | 32.1 µM (inactive) | 80.4 µM (inactive) | 56.2 µM (inactive) | 15.2 µM (inactive)
COc1ccc2c(c1O)-c1c(OC)c(OC)cc3c1[C@H](C2)[N+](C)(C)CC3 | > 100 µM (inactive) | > 100 µM (inactive) | > 100 µM (inactive) | > 100 µM | – | 13.2 µM (inactive) | > 100 µM (inactive) | > 100 µM (inactive) | > 100 µM (inactive) | > 100 µM (inactive) | > 100 µM (inactive) | > 100 µM (inactive) | > 100 µM (inactive) | > 100 µM (inactive) | > 100 µM (inactive) | > 100 µM (inactive) | 0.0409 µM (active)
